Legend:
[1] = biological target: Tyrosine-protein kinase BTK (Mus musculus, UniProt P35991); assay: Inhibition of C57BL/6J mouse BTK assessed as decrease in anti-mouse IgM antibody stimulated BCR mediated CD69 upregulation preincubated for 30 mins followed by antibody challenge after 18 to 24 hrs by flow cytometry
[2] = biological target: Tyrosine-protein kinase BTK (Homo sapiens, UniProt Q06187); assay: Inhibition of recombinant human full length BTK preincubated for 10 mins followed by Tk-biotin peptide substrate addition after 90 mins by TR-FRET assay
Chain of Tyrosine-protein kinase BTK (Homo sapiens, UniProt Q06187) (Q06187 whole entry): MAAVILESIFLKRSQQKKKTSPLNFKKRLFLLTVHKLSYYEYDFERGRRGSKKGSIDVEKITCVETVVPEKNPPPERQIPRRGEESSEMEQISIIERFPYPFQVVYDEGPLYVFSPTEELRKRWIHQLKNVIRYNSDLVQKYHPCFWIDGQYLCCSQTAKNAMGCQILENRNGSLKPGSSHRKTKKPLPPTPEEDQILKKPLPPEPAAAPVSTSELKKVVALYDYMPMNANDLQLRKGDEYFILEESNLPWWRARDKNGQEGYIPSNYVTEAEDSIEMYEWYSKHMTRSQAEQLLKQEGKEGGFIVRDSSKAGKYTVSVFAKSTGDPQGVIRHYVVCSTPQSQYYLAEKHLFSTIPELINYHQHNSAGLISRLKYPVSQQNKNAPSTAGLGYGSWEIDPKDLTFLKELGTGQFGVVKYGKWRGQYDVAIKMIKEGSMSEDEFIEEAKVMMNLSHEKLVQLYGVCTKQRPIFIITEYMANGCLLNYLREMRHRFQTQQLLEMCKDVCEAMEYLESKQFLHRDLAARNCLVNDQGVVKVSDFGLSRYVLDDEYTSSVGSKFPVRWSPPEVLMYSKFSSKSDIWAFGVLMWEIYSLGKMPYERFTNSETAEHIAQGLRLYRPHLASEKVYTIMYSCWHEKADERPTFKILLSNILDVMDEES

[3] = Metabolic stability in mouse liver microsomes assessed as metabolism rate; assay type: ADME, microsome
[4] = Metabolic stability in rat liver microsomes assessed as metabolism rate; assay type: ADME, microsome
[5] = Metabolic stability in human liver microsomes assessed as metabolism rate; assay type: ADME, microsome
[6] = Equilibrium aqueous solubility of the compound at pH 7.4; assay type: physicochemical
[7] = Equilibrium aqueous solubility of the compound at pH 4; assay type: physicochemical

Chain of Tyrosine-protein kinase BTK (Mus musculus, UniProt P35991) (P35991 whole entry): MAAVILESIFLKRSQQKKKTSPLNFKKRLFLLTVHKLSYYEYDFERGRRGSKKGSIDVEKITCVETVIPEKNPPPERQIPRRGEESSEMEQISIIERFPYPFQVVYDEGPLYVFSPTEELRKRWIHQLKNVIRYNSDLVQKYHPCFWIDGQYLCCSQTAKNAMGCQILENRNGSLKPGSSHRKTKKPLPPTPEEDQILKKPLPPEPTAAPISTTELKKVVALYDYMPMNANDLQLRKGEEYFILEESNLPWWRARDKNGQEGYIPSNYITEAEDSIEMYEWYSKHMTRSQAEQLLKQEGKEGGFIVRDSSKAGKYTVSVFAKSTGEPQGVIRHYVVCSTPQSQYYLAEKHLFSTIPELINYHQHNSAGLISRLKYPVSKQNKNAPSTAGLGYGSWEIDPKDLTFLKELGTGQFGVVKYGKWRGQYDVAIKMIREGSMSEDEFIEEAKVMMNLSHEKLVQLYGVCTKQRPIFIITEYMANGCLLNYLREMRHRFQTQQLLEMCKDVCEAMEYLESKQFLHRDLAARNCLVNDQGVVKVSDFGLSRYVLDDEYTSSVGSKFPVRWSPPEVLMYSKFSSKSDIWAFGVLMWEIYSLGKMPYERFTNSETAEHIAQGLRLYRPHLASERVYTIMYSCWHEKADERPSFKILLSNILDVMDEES

Row | IC50 [1] | IC50 [2] | Drug metabolism [3] | Drug metabolism [4] | Drug metabolism [5] | solubility thermodynamic [6] | solubility thermodynamic [7] | Compound
1 | 54 nM | 5.1 nM |  |  |  |  |  | CN1CC(Oc2ccc(-c3cc4c(-c5cccc(N6CCOc7cc(C8CC8)ccc7C6=O)c5CO)ncnc4[nH]3)cc2)C1
2 | 51 nM | 2.6 nM |  |  |  |  |  | CN1CCC(Oc2ccc(-c3cc4c(-c5cccc(N6CCOc7cc(C8CC8)ccc7C6=O)c5CO)ncnc4[nH]3)cc2)CC1
3 | 81 nM | 6.8 nM |  |  |  |  |  | CC1(O)CCN(Cc2ccc(-c3cc4c(-c5cccc(N6CCOc7cc(C8CC8)ccc7C6=O)c5CO)ncnc4[nH]3)cc2)CC1
4 | 36 nM |  |  |  |  |  |  | CN1CCN(c2ccc(-c3cc4c(-c5cccc(N6CCOc7cc(C8CC8)ccc7C6=O)c5CO)ncnc4[nH]3)cc2)CC1
5 | 5.8 nM |  | 0.05 nmol/min/mg | 0.05 nmol/min/mg | 0.05 nmol/min/mg |  |  | CN(C)C(=O)N1CC=C(c2cc3c(-c4cccc(N5CCOc6cc(C7CC7)cc(F)c6C5=O)c4CO)ccnc3[nH]2)CC1
6 | 17.7 nM | 5.5 nM | 0.09 nmol/min/mg | 0.05 nmol/min/mg | 0.07 nmol/min/mg |  |  | CS(=O)(=O)N1CC=C(c2cc3c(-c4cccc(N5CCOc6cc(C7CC7)cc(F)c6C5=O)c4CO)ccnc3[nH]2)CC1
7 | 59 nM | 8.3 nM |  |  |  |  |  | O=C1c2ccc(C3CC3)cc2OCCN1c1cccc(-c2ncnc3[nH]c(-c4ccc(CN5CCOCC5)cc4)cc23)c1CO
8 | 14 nM | 5.4 nM |  |  |  |  |  | CN1CCN(Cc2ccc(-c3cc4c(-c5cccc(N6CCOc7cc(C8CC8)ccc7C6=O)c5CO)ccnc4[nH]3)nc2)CC1
9 | 75 nM |  | 0.1 nmol/min/mg | 0.09 nmol/min/mg | 0.04 nmol/min/mg | < 20 µM | < 100 µM | CC(C)(O)CN1CC=C(c2cc3c(-c4cccc(N5CCOc6cc(C7CC7)cc(F)c6C5=O)c4CO)ccnc3[nH]2)CC1
10 | 48 nM | 6.5 nM |  |  |  |  |  | CN1CCN(Cc2ccc(-c3cc4c(-c5cccc(N6CCOc7cc(C8CC8)ccc7C6=O)c5CO)ncnc4[nH]3)cc2)CC1
11 | 14.7 nM | 1.1 nM | 0.04 nmol/min/mg | 0.04 nmol/min/mg | < 0.04 nmol/min/mg |  |  | CC1(O)CN(C(=O)N2CC=C(c3cc4c(-c5cccc(N6CCOc7cc(C8CC8)cc(F)c7C6=O)c5CO)ccnc4[nH]3)CC2)C1
12 |  | 21 nM |  |  |  |  |  | Cc1c(-c2ncnc3[nH]c(-c4ccc(CN5CCN(C)CC5)cc4)cc23)cccc1N1CCOc2cc(C3CC3)ccc2C1=O
13 | 32 nM |  |  |  |  |  |  | CN1CCC(n2cc(-c3cc4c(-c5cccc(N6CCOc7cc(C8CC8)ccc7C6=O)c5CO)ncnc4[nH]3)cn2)CC1
14 | 5.5 nM |  | 0.06 nmol/min/mg | 0.15 nmol/min/mg | < 0.04 nmol/min/mg |  |  | CN1CCN(Cc2ccc(-c3cc4c(-c5cccc(N6CCOc7cc(C8CC8)cc(F)c7C6=O)c5CO)ccnc4[nH]3)nc2)CC1
15 | 8.3 nM |  | 0.1 nmol/min/mg | < 0.04 nmol/min/mg | 0.05 nmol/min/mg | < 20 µM | < 100 µM | O=C1c2c(F)cc(C3CC3)cc2OCCN1c1cccc(-c2ccnc3[nH]c(-c4cnn(C5CCN(C6COC6)CC5)c4)cc23)c1CO
16 | 51.2 nM |  | < 0.04 nmol/min/mg | < 0.04 nmol/min/mg | 0.07 nmol/min/mg |  |  | N#CCC(=O)N1CC=C(c2cc3c(-c4cccc(N5CCOc6cc(C7CC7)cc(F)c6C5=O)c4CO)ccnc3[nH]2)CC1
